Results on five compounds are retold here after publication PMC10380841, “Synthesis, Characterization and Cytotoxic Evaluation of New Pyrrolo[1,2-b]pyridazines Obtained via Mesoionic Oxazolo-Pyridazinones” (International Journal of Molecular Sciences, 2023).

Series [1] concerns Triticum vulgare root tips. Put plainly: Microscopic examination of Triticum root tips (mitotic film changes). The conditions noted are these: 24 h contact. It counts as in vivo. As for the experimental part:
Microscopic examination of Triticum vulgare root tips followed the mitotic film changes induced by the tested compounds. Observations were made after 24 h of contact of the caryopses with the test solutions. The study was made in comparison with DMSO control maintained under the same conditions as the samples. To obtain microscopic preparations, sectioning of wheat embryonic roots was carried out at about 5 mm from the tip and stained with dilute […] according to the La Cour procedure. The examination was conducted on a Euromex oxion series 110–240 V/50–60 Hz microscope with digital camera CEMEX 5 DC 5000 C and 40× and 100× lenses with cedar oil immersion (Sigma-Aldrich St. Louis, MO, USA).

Series [2] in a line: Daphnia magna toxicity assay. It counts as in vivo. The note with it: Daphnia magna, in vivo; 48 h. As for the experimental part: (§1) Young organisms of Daphnia magna were selected according to their size from a parthenogenetic culture maintained in an artificial medium for 24 h before the bioassay. The determination was conducted in tissue culture plates with 12 wells (Greiner Bio-One, Monroe, NC, USA), with 10 organisms in each well, and a final volume of 3 mL per sample [65, 66]. As a negative control, DMSO was used at a concentration of 1%. All compounds were tested at six different concentration levels, ranging from 12.5 to 500 μg/mL. All assessments were performed in duplicate.

For a further series, the system named is Daphnia magna Straus. Put plainly: Daphnia magna toxicity assay. The note with it: for L% values (lethality) / toxicity on Daphnia magna: 48 h; for L% values (lethality): all tested concentrations. It counts as in vivo. As for the experimental part:
as §1

For series [3], the system named is LoVo colon adenocarcinoma cells. Put plainly: MTS cytotoxicity assay, LoVo. It counts as cell-based, human. The method, then:
(§2) Therefore, the precursor acids 2a–c and corresponding pyrrolo[1,2-b]pyridazines 5a–c,f were tested for their potential cytotoxic activity. During the assays, increasing concentrations of the compounds, ranging from […], were added for 24 h or 48 h to cancer LoVo, SK-OV-3, MCF-7, and the reference HUVEC cells, previously cultured for 24 h in 96-well flat bottom plates. […] Then, MTS reagent was added, and cells were incubated for 4 h at 37 °C in a 5% CO2 humidified atmosphere. The absorbance values were spectrophotometrically read to a Dynex ELISA reader at λ = […].
(§3) For the evaluation of the in vitro potential anti-proliferative effects of treatments with the new compounds under study against solid tumor-derived cells, several compound-mediated cytotoxicity assays were performed on three adherent tumor standardized cell lines, and normal human endothelial cells, used as control: the MCF-7 human breast adenocarcinoma and SK-OV-3 human ovary adenocarcinoma cell lines were provided from European Collection of Authenticated Cell Cultures (ECACC), while LoVo, human colorectal adenocarcinoma cell line, and HUVEC human umbilical vein endothelial cells were purchased from American Type Culture Collection (ATCC).
(§4) Adherent cells were cultivated in DMEM/F12 medium added with 2 mM L-glutamine and 10% fetal bovine serum, 100 units/mL penicillin, 100 µg/mL streptomycin (Sigma Aldrich, St. Louis, MO, USA) and incubated at 37 °C in 5% CO2 humidified atmosphere. The stock solutions for cell treatments were prepared by dissolving the synthesized compounds in a minimum amount of DMSO. Working dilutions were prepared from the stock solutions in culture medium before each treatment assay. After 24 h, when cell cultures achieved around 70% confluence, treatments were applied for various periods of time with different concentrations of synthesized compounds or oncolytic drugs, used as positive controls.
(§5) Therefore, cell cultures treated with the new compounds or oncolytic drugs for 24 h or 48 h were further subjected to a colorimetric cell viability method, the MTS assay. The absorbance of probes was read, data were calculated, and percentages of cell viability were assessed.
(§6) The evaluation of the compound-induced cytotoxicity was made using the CellTiter 96 Aqueous One Solution Cell Proliferation Assay (Promega, Madison, WI, USA), a reagent that contains both MTS (3-(4,5-dimethylthiazol-2-yl)-5-(3-carboxymethoxyphenyl)-2-(4-sulfophenyl)-2H-tetrazolium, inner salt) and PES ([…], a cationic dye with high chemical stability that binds to MTS and forms a stable solution).
(§7) Briefly, 1.5 × 10^4 cancer or normal cells were cultured in 100 µL/well for 24 h. After the culture supernatants were discarded, cells were treated for additional 24 h or 48 h with increasing concentrations of new compounds or oncolytic drugs. Following the specific treatments, in each well a volume of 20 µL of coloring mixture reagent of MTS and PES was added, and then the plates were incubated with mild agitation every 20 min for 4 h at 37 °C. The color developed during incubation was spectrophotometrically quantified at λ = 492 nm using a Dynex ELISA reader (DYNEX Technologies—MRS, Chantilly, VA, USA).
(§8) Data were expressed as percentages of cell viability of the treated cells, and were calculated and compared to the untreated cells (considered 100% viable), using the formula:Cell viability (%) = (T − B)/(U − B) × 100 where T = absorbance of treated cells, U = absorbance of untreated cells, and B = absorbance of culture medium (blank), for λ = 492 nm.
(§9) The cell viability data were expressed as the mean values ± standard deviations (SD) of three different experiments (n = 3). […] Moreover, a parallel experiment was performed in the absence of cells, with all the concentrations of the compounds being tested for their potential interference with MTS reagents; then, their absorbance values were extracted during calculations.
On the technique in general: Tetrazolium dyes change colour on reduction, which living cells bring about.

Series [4] has the same test system. The series is described as follows: MTS cytotoxicity assay, LoVo. It counts as cell-based. The note with it: Homo sapiens, read-out: cell viability.
Series [5] concerns SK-OV-3 ovary adenocarcinoma cells. The series is described as follows: MTS cytotoxicity assay, SK-OV-3. It counts as cell-based, human. As for the experimental part:
as §2, §3, §4, §5, §6, §7, §8, §9

In series [6] the test system is MCF-7 breast adenocarcinoma cells. Put plainly: MTS cytotoxicity assay, MCF-7. It counts as cell-based, human. The conditions noted are these: Homo sapiens, MCF7; for viability at 400 µM: MCF-7, 400 μM, 48 h, read-out: cell viability; for IC50: MCF-7, 48 h, read-out: IC50 MCF-7 48 h. As for the experimental part:
as §2, §3, §4, §5
as §6, with “solution). The assay is based on the ability of the metabolically active cells to reduce the yellow tetrazolium salt MTS to a compound that is soluble in culture medium, the colored formazan, followed by the spectrophotometric evaluation of its concentration.” for “solution).”
as §7, §8
The cell viability data were expressed as the mean values ± standard deviations (SD) of three different experiments (n = 3). […]

Series [7] concerns SK-OV-3 ovary adenocarcinoma cells. Put plainly: MTS cytotoxicity assay, SK-OV-3. It counts as cell-based. The note with it: Homo sapiens; SK-OV-3, 400 μM, 24 h; read-out: cell viability.
The test system of the next series is Triticum aestivum L. Put plainly: Triticum test, phytotoxicity (main root length). The note with it: Triticum aestivum, 72 h; Triticum root length, 10–1000 µM, measured over three days. Format: in vivo. The method, then:
Phytobiological testing (Triticum test) was performed by the Constantinescu method which consists in determining the maximum active dilution of a compound. Depending on the duration of action, it can influence root elongation and the […] film. […] Embryonic wheat roots were obtained by germinating homogeneous wheat caryopses in Linhart pots. Then the caryopses with a main root length of 1 cm were placed in the test solutions. For the determination of the action of each compound, five dilutions in the concentration range of 10–1000 µM were obtained and 11 caryopses were placed in them. Petri dishes containing 15 mL of diluted solution were kept under constant conditions of temperature (25 °C), and humidity (60%), in the absence of light. […] The results were expressed in comparison with a 1% DMSO control.
Statistical analyses were performed using the computing and programming environment R, R, v. 4.2.1 [68], under Rstudio, v. 2022.07.2+576 “Spotted Wakerobin” for Windows (RStudio, PBC, Boston, 2022), both for the Triticum and Artemia tests. It used a parametric mixed-effects model (R package “lme4”) and a robust mixed-effects model (R package “robustlmm”), in which root length measurements (Triticum) from all three days were used as the dependent variable, whereas compound, concentration and time were treated as fixed effects, with time (day of measurement) also treated as a random effect. Assessing statistical significance for mixed-effects statistical models is controversial and complex, but as a pragmatic way of working, we have estimated p-values using the Kenward–Rogers approximation (R package “sjPlot”). A variety of R base functions and R packages were used to diagnose the regression models (“car” [72], “MASS” [73], and “gvlma” [74]). Mixed boxplot–dotplot plots were generated using the “ggplot2” package.
The “drc” R package was used to estimate IC50 values for the Triticum bioassay by nonlinear modeling. For Triticum, the relationship between root length and concentration was modeled using Weibull functions with 2, 3, or 4 parameters, depending on the data distribution, the models being selected from a range of several models with different functions and parameters, based on the Akaike’s information criterion (AIC).

Setting [8] is: Homo sapiens, 24 h, read-out: IC50 LoVo 24 h.
[9] abbreviates: Homo sapiens, 48 h, read-out: IC50 LoVo 48 h.
[10] abbreviates: Homo sapiens, SK-OV-3, 24 h, read-out: IC50 Sk-OV-3 24 h.
Setting [11] is: Homo sapiens, SK-OV-3, 48 h, read-out: IC50 Sk-OV-3 48 h.

“Also recorded” adds a separate entry of the source. Where two headings read alike, the source gives them in different places.

On to `CCc1cc(C(=O)OC)c2ccc(-c3ccccc3)nn12` [Compound 5a, Methyl 7-ethyl-2-phenylpyrrolo[1,2-b]pyridazine-5-carboxylate], for which the “mitotic film / cell changes in root tips” value is listed as “bridged telophase, disorganized metaphase” in [1] (100 µM) and “telophase with delayed chromosome, wavy cell walls; also recorded: no mitoinhibitory effect” in [1] (1000 μM). For the same compound, in series [2], the LC50 (in general, the concentration lethal to half of the exposed cells or organisms) at 48 h amounted to 46.1 µM. In addition, the “maximum lethality (L%)” value in the series with Daphnia magna Straus (24 h) came out at 40%. Also, the IC50 – broadly, the point on the concentration scale where inhibition reaches its midpoint – is not below 400 µM in [3] (setting [8]) and 304 ± 4.85 µM in series [3] (setting [9]). In addition, the viability (as a rule, a read-out of living cells in per cent, often relative to untreated cells) at 50 µM in series [4] (24 h) worked out at 79%; in [4] (48 h) it was 65.3%. In addition, the viability at 100 µM worked out at 78.1% in [4] (24 h) and 58.2% in series [4] (48 h). In addition, in [4] (200 μM, 48 h), the viability at 200 µM amounted to 52.5%. In addition, the viability at 400 µM in series [4] (24 h) is 63.5%; in [4] (48 h), 48.5%.

As for `N.N.[Cl][Pt][Cl]` [CisPt, cisplatin, reference compound], the IC50 in [3] (24 h, read-out: IC50 LoVo 24 h) was determined as 79.1 ± 4.75 µM; in [3] (48 h, read-out: IC50 LoVo 48 h), 57 ± 0.95 µM; in series [5] (SK-OV-3, 24 h, read-out: IC50 Sk-OV-3 24 h), 92.2 ± 3.45 µM; in series [5] (SK-OV-3, 48 h, read-out: IC50 Sk-OV-3 48 h) it was 78.2 ± 4.01 µM.

Consider `CCc1cc(C(=O)OC)c2ccc(-c3ccc(Cl)cc3)nn12` [Compound 5c, Methyl 2-(4-chlorophenyl)-7-ethylpyrrolo[1,2-b]pyridazine-5-carboxylate], for which the LC50 at 48 h in [2] is approximately 107 µM. The “L% values (lethality)” value with Daphnia magna Straus is “ND ** (all L% values were in range of 30 to 70%, independent of concentration)”. Moreover, the IC50 in series [3] (setting [8]), in series [3] (setting [9]), in series [6], in [5] (setting [10]) and in series [5] (setting [11]) was not below 400 µM throughout. Further, the viability at 400 µM in series [6] amounted to 88.5%; in series [4] (24 h), 68.6%; in series [4] (48 h), 61.1%.

`CCc1cc(C(=O)OC)c2ccc(-c3ccc(F)cc3)nn12` [Compound 5b, Methyl 7-ethyl-2-(4-fluorophenyl)pyrrolo[1,2-b]pyridazine-5-carboxylate]: the “mitotic film / cell changes in root tips” value in series [1] (1000 μM) is listed as “telophase in tropokinesis, normal, or disorganized metaphase”. Besides, the LC50 at 48 h in series [2] was 463 µM. Further, the “toxicity on Daphnia magna” value in the series on Daphnia magna Straus is reported as “moderate toxicity”. Besides, the IC50 in series [3] (setting [8]), in [3] (setting [9]), in [6], in [5] (setting [10]) and in series [5] (setting [11]) was not below 400 µM throughout. For the same compound, the viability at 400 µM stood at 89.7% in series [6], 87.8% in [4] (24 h), 60.3% in series [4] (48 h) and 78% in series [7]. For the same compound, in [4] (48 h), the viability at 100 µM stood at 79.4%.

Consider `CCC(C(=O)O)n1nc(-c2ccc(F)cc2)ccc1=O` (stereo not drawn) [Compound 2b, 2-[6-Oxo-3-(4-fluorophenyl)pyridazin-1-yl]butanoic acid], for which the IC50 in the series on Triticum aestivum L. is 204 µM; in series [3] (setting [8]), not below 400 µM; in series [3] (setting [9]) it was not below 400 µM; in [6], not below 400 µM; in [5] (setting [10]) it was not below 400 µM; in series [5] (setting [11]), not below 400 µM. Further, the “mitotic film / cell changes in root tips” value in series [1] (1000 μM) was “Mitoinhibition and cells with 1-3 nucleoli”. For the same compound, the “toxicity on Daphnia magna” value with Daphnia magna Straus was “no toxicity”. Besides, the “L% values (lethality)” value with Daphnia magna Straus is reported as “ND * (all L% values were lower than 30%)”. The results for the viability at 400 µM in [4] (24 h) and in [4] (48 h) were 91% and 81.1%, respectively.
